Patent publication US12268673B2, “Anhydrous compositions of mTOR inhibitors and methods of use” (PALVELLA THERAPEUTICS, INC., priority 2017, dated 2025)
Entries after “also recorded” stand apart in the source; their conditions may differ.

Assay: Ex vivo skin permeation experiment
Assay type: in vitro ADME
Conditions: human donor skin
Method: Human donor skin was placed between upper and lower compartments. The lower compartment was filled with receiver fluid. Various rapamycin compositions were applied on the surface of the skin facing the upper compartment (11 formulations (i.e., O3, NA21, NA22, NA21, NA17, TD201, NA19, NA25, AG14, NA26 and NA24), n=6 replicates, dosage 10 mg/cm^2) and left for 24 hrs. A positive displacement pipette was used to apply the formulation (˜10 mg/cm2) to the plunger of a 1 mL syringe. The formulation (10+/−0.5 mg) was applied to the skin surface and spread over the diffusion area using the plunger. Prior to and after the application the weight of the plunger was recorded, from which the dose per cell was calculated.
Following the time period, the excess rapamycin compositions were wiped from the skin surface and the skin layers were separated into stratum corneum, epidermis, and dermis. The Stratum corneum was removed from the human skin using a tape stripping procedure. The epidermis was separated from the dermis by dry heating at 60° C. for 2 min. Rapamycin was extracted from each layer by 90:10 v/v ethanol: water solvent mixture, and quantified. The receiver fluid in the lower compartment was also analyzed for the presence of rapamycin.

- rapamycin in the receiver fluid (10 mg/cm^2, any time point across the experimental period (24 hrs)): not detected
SMILES: CO[C@H]1C[C@@H]2CC[C@@H](C)[C@@](O)(O2)C(=O)C(=O)N2CCCC[C@H]2C(=O)O[C@H]([C@H](C)C[C@@H]2CC[C@@H](O)[C@H](OC)C2)CC(=O)[C@H](C)/C=C(\C)[C@@H](O)[C@@H](OC)C(=O)[C@H](C)C[C@H](C)/C=C/C=C/C=C/1C [rapamycin]
- distribution of rapamycin over skin surface, stratum corneum, epidermis and dermis (10 mg/cm^2, 24 hrs): greatest amount of rapamycin was found on the surface of the skin; also recorded: more of the drug residing in the epidermis than either the stratum corneum or dermal layer; also recorded: increase in the amount of rapamycin quantified in both the epidermis and dermis
